From US8853230B2, “Inhibitors of JAK” (Portola Pharmaceuticals, Inc., priority 2009, dated 2014)

What was measured:
TYK2 = target: T1, TYK2 (Homo sapiens, UniProt P29597); assay: Z'-LYTE kinase assay, TYK2 tyrosine phosphorylation activity; type: biochemical
T1 construct: 5 μl of catalytic domain recombinant Kinase enzyme+Tyr peptide substrate (Invitrogen, Calif.); purchased Invitrogen
T1 sequence (P29597 897-1176 limits assumed): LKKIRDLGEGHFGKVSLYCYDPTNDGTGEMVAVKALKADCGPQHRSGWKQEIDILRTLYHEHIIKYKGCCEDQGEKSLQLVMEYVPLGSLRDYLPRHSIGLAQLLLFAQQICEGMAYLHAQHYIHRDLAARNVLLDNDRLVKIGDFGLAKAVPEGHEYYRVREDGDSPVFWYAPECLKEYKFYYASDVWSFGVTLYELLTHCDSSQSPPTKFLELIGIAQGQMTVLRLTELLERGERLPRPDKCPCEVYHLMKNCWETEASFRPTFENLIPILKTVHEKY
Outline: (§1)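 FRET read-out (ex 400 nm, em 445 and 520 nm) after protease cleavage of non-phosphorylated Tyr6 peptide. Kinase step: catalytic-domain enzyme, peptide, ATP and compound, 1 h at RT, 1% DMSO. IC50 from a 4-parameter logistic fit of percent phosphorylation versus uninhibited control.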

JAK2 = target: T2, JAK2 (Homo sapiens, UniProt O60674); assay: Z'-LYTE kinase assay, JAK2 tyrosine phosphorylation activity; type: biochemical
T2 construct: 5 μl of catalytic domain recombinant Kinase enzyme+Tyr peptide substrate (Invitrogen, Calif.); purchased Invitrogen
Outline: as §1

JAK1 = target: T3, JAK1 (Homo sapiens, UniProt P23458); assay: Z'-LYTE kinase assay, JAK1 tyrosine phosphorylation activity; type: biochemical; conditions: read-out: JAK 1 IC50
T3 construct: 5 μl of catalytic domain recombinant Kinase enzyme+Tyr peptide substrate (Invitrogen, Calif.); purchased Invitrogen
Outline: as §1

JAK3 = target: T4, JAK3 (Homo sapiens, UniProt P52333); assay: Z'-LYTE kinase assay, JAK3 tyrosine phosphorylation activity; type: biochemical
T4 construct: 5 μl of catalytic domain recombinant Kinase enzyme+Tyr peptide substrate (Invitrogen, Calif.); purchased Invitrogen
Outline: as §1

[1] = tested on: IL4-induced phospho STAT6 formation in Ramos B lymphocytes; assay: Inhibition of IL4-induced phospho STAT6 formation in Ramos B lymphocytes (flow cytometry); type: cell-based, human; conditions: Homo sapiens; for inhibition at 0.2 µM: 200 nM compound, read-out: % Inhibition of IL-4 Induced STAT6 Phosphorylation 200 nM; for inhibition at 1 µM: 1 μM compound, read-out: % Inhibition of IL-4 Induced STAT6 Phosphorylation 1 μM
Text: Similar types of assays can be used to assess JAK inhibitory activity and to determine the degree of selectivity of the particular compound as compared to syk. One means of assaying for such inhibition is detection of the effect of the compounds of the present invention on the upregulation of downstream gene products. In the Ramos/IL4 assay, B-cells are stimulated with the cytokine Interleukin-4 (IL-4) leading to the activation of the JAK/Stat pathway through phosphorylation of the JAK family kinases, JAK1 and JAK3, which in turn phosphorylate and activate the transcription factor Stat-6. […] To study the effect of inhibitors (e.g., the 2,4-substituted pyrimindinediamine compounds described herein) on the JAK1 and JAK3, human Ramos B-cells are stimulated with human IL-4. 10′ post-stimulation, cells are subjected to intracellular flow cytometry to measure the extent of STAT-6 phosphorylation. 20 to 24 hours post-stimulation, cells are stained for upregulation of CD23 and analyzed using flow cytometry.
Inhibition of IL4-induced phospho STAT6 formation was measured by pre-incubating 0.5 million Ramos B lymphocytes (ATCC) with 5 μl compound or DMSO vehicle for 1 hour at 37° C./5% CO2. Cells were activated by addition of 1 ng/ml [f]IL4 (R & D Research Systems) for 10 min at 37° C./5% CO2 and then fixed by addition of 1.6% [f]PFA (Electron Microscopy Services). Following a PBS wash step and permaeabilization with 100% methanol, cells were incubated with ALEXA-conjugated anti-phosphoSTAT6 (Y641) antibody (BD 612600). The extent of cell associated-fluorescence was determined by flow cytomentry and data expressed as mean fluorescent intensity. The extent of inhibition of the IL4-induced signal was then calculated.

T3 sequence (P23458 875-1153 limits assumed): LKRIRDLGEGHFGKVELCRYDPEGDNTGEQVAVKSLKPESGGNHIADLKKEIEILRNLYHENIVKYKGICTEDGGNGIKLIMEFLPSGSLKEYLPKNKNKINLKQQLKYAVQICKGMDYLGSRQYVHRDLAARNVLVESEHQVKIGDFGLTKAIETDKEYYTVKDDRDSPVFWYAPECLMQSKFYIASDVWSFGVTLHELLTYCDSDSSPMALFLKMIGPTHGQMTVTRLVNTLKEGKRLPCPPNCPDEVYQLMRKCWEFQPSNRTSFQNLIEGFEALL
T2 sequence (O60674 849-1124 limits assumed): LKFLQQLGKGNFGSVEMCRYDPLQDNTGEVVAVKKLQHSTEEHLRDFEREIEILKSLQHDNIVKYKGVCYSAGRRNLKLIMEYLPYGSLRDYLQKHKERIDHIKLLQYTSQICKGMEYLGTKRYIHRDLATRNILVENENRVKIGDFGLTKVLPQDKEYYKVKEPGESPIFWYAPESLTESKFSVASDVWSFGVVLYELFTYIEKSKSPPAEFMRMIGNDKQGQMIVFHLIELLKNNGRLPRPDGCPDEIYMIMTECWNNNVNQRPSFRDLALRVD
T4 sequence (P52333 822-1111 limits assumed): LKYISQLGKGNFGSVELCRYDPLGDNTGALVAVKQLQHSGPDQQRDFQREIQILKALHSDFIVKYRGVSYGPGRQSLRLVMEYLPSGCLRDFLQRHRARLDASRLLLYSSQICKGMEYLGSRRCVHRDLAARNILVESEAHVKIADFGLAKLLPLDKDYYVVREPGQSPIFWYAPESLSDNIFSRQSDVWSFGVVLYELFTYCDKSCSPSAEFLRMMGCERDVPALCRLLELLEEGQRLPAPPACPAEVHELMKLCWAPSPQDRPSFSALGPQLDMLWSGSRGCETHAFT

| IC50 (TYK2) | IC50 (JAK2) | IC50 (JAK1) | IC50 (JAK3) | SMILES | inhibition at 0.2 µM [1] | inhibition at 1 µM [1] |
| --- | --- | --- | --- | --- | --- | --- |
| 0.1 to 1 µM | > 1 µM | > 1 µM | 0.01 to 0.1 µM | NC(=O)c1cnc(Nc2ccc(Cl)c(NC(=O)NC3CC3)c2)nc1NCc1ccccc1 [Example 154, 4-(benzylamino)-2-(4-chloro-3-(3-cyclopropylureido)phenylamino)pyrimidine-5-carboxamide] | 11.7% | 33.7% |
| 0.001 to 0.01 µM | 0.01 to 0.1 µM | 0.01 to 0.1 µM | 0.001 to 0.01 µM | CCCCNc1nc(Nc2cccc(NC(=O)N3CCCC3)c2)ncc1C(N)=O [Example 135, 4-(butylamino)-2-(3-(pyrrolidine-1-carboxamido)phenylamino)pyrimidine-5-carboxamide] | 42.3% | 89.7% |
| 0.1 to 1 µM | 0.1 to 1 µM | 0.1 to 1 µM | 0.01 to 0.1 µM | CC(=O)Nc1cccc(Nc2cc(NCc3ccccc3)c(C(N)=O)cn2)c1 [Example 213, 6-(3-acetamidophenylamino)-4-(benzylamino)nicotinamide] | 11.3% | 35.3% |
| 0.001 to 0.01 µM | 0.01 to 0.1 µM | 0.01 to 0.1 µM | < 0.001 µM | CN1CCN(C(=O)Nc2cccc(Nc3ncc(C(N)=O)c(NCc4ccccc4)n3)c2)CC1 [Example 216, 4-(benzylamino)-2-(3-(4-methylpiperazine-1-carboxamido)phenylamino)pyrimidine-5-carboxamide] | 57.3% | 91% |
| 0.001 to 0.01 µM | 0.01 to 0.1 µM | 0.01 to 0.1 µM | 0.001 to 0.01 µM | COC[C@@H]1CCCN1C(=O)Nc1cccc(Nc2ncc(C(N)=O)c(NCc3ccccc3)n2)c1 [Example 140, (S)-4-(benzylamino)-2-(3-(2-(methoxymethyl)pyrrolidine-1-carboxamido)phenylamino)pyrimidine-5-carboxamide] | 21.7% | 69% |
| 0.01 to 0.1 µM | 0.1 to 1 µM | 0.1 to 1 µM | 0.01 to 0.1 µM | CCNC(=O)Nc1cc(Nc2ncc(C(N)=O)c(NCc3ccccc3)n2)ccc1Cl [Example 153] | 22.3% | 51.7% |
| 0.001 to 0.01 µM | 0.01 to 0.1 µM | 0.01 to 0.1 µM | 0.001 to 0.01 µM | C[C@H]1CCCN1C(=O)Nc1cccc(Nc2ncc(C(N)=O)c(NCc3ccccc3)n2)c1 [Example 139, (S)-4-(benzylamino)-2-(3-(2-methylpyrrolidine-1-carboxamido)phenylamino)pyrimidine-5-carboxamide] | 25.3% | 74.3% |
| 0.1 to 1 µM | > 1 µM | > 1 µM | 0.001 to 0.01 µM | NC(=O)c1cnc(Nc2ccc(Cl)c(NC(=O)N3CCCCC3)c2)nc1NCc1ccccc1 [Example 209, 4-(benzylamino)-2-(4-chloro-3-(piperidine-1-carboxamido)phenylamino)pyrimidine-5-carboxamide] | 0.3% | 1% |
| 0.1 to 1 µM | 0.1 to 1 µM | 0.1 to 1 µM | 0.01 to 0.1 µM | COCC(=O)Nc1ccc(F)c(Nc2ncc(C(N)=O)c(NCc3ccccc3)n2)c1 [Example 172, 4-(benzylamino)-2-(2-fluoro-5-(2-methoxyacetamido)phenylamino)pyrimidine-5-carboxamide] | 11.3% | 33% |
| 0.01 to 0.1 µM | 0.1 to 1 µM | 0.1 to 1 µM | 0.001 to 0.01 µM | NC(=O)c1cnc(Nc2ccc(Cl)c(NC(=O)N3CCC3)c2)nc1NCc1ccccc1 [Example 233, 2-(3-(azetidine-1-carboxamido)-4-chlorophenylamino)-4-(benzylamino)pyrimidine-5-carboxamide] | 7% | 37.7% |
| 0.01 to 0.1 µM | 0.01 to 0.1 µM | 0.01 to 0.1 µM | 0.01 to 0.1 µM | CC(=O)Nc1cccc(Nc2ncc(C(N)=O)c(NC3Cc4ccccc4C3)n2)c1 [Example 92, 2-(3-acetamidophenylamino)-4-(2,3-dihydro-1H-inden-2-ylamino)pyrimidine-5-carboxamide] |  |  |

Further lines, the compound ahead of its results:

| SMILES | IC50 (TYK2) | IC50 (JAK2) | IC50 (JAK1) | IC50 (JAK3) | inhibition at 0.2 µM [1] | inhibition at 1 µM [1] |
| --- | --- | --- | --- | --- | --- | --- |
| NC(=O)c1cnc(Nc2ccc(Cl)c(NC(=O)N3CCCC3)c2)nc1NCc1cccc(F)c1 [Example 177, 2-(4-chloro-3-(pyrrolidine-1-carboxamido)phenylamino)-4-(3-fluorobenzylamino)pyrimidine-5-carboxamide] | 0.1 to 1 µM | 0.1 to 1 µM | > 1 µM | 0.001 to 0.01 µM | 2.3% | 7.3% |
| NC(=O)c1cnc(Nc2cccc(NC(=O)[C@H]3CCCO3)c2)nc1NCc1ccccc1 [Example 202, (R)-4-(benzylamino)-2-(3-(tetrahydrofuran-2-carboxamido)phenylamino)pyrimidine-5-carboxamide] | 0.001 to 0.01 µM | 0.01 to 0.1 µM | 0.01 to 0.1 µM | 0.001 to 0.01 µM | 23.5% | 48.5% |
| COC[C@H]1CCCN1C(=O)Nc1cccc(Nc2ncc(C(N)=O)c(NCc3ccccc3)n2)c1 [Example 147, (R)-4-(benzylamino)-2-(3-(2-(methoxymethyl)pyrrolidine-1-carboxamido)phenylamino)pyrimidine-5-carboxamide] | 0.001 to 0.01 µM | 0.01 to 0.1 µM | 0.01 to 0.1 µM | 0.001 to 0.01 µM | 28.7% | 82% |
| CN(C)[C@@H]1CCN(C(=O)Nc2cccc(Nc3ncc(C(N)=O)c(NCc4ccccc4)n3)c2)C1 [Example 210, (R)-4-(benzylamino)-2-(3-(3-(dimethylamino)pyrrolidine-1-carboxamido)phenylamino)pyrimidine-5-carboxamide] | 0.001 to 0.01 µM | 0.01 to 0.1 µM | 0.01 to 0.1 µM | 0.001 to 0.01 µM | 48% | 81.7% |
| NC(=O)c1cnc(Nc2ccc(F)c(NC(=O)N3CCC3)c2)nc1NCc1ccccc1 [Example 234, 2-(3-(azetidine-1-carboxamido)-4-fluorophenylamino)-4-(benzylamino)pyrimidine-5-carboxamide] | 0.01 to 0.1 µM | 0.01 to 0.1 µM | 0.01 to 0.1 µM | 0.001 to 0.01 µM | 34.3% | 77% |
| CC(C)[C@H](C)Nc1nc(Nc2ccc(Cl)c(NC(=O)N3CCCC3)c2)ncc1C(N)=O [Example 248, (S)-2-(4-chloro-3-(pyrrolidine-1-carboxamido)phenylamino)-4-(3-methylbutan-2-ylamino)pyrimidine-5-carboxamide] | 0.01 to 0.1 µM | > 1 µM | 0.01 to 0.1 µM | 0.01 to 0.1 µM | 61.3% | 94.7% |
| NC(=O)c1cnc(Nc2cccc(NC(=O)C3CCOC3)c2)nc1NCc1ccccc1 (stereo not drawn) [Example 203, 4-(benzylamino)-2-(3-(tetrahydrofuran-3-carboxamido)phenylamino)pyrimidine-5-carboxamide] | 0.001 to 0.01 µM | 0.01 to 0.1 µM | 0.01 to 0.1 µM | 0.001 to 0.01 µM | 80% | 106% |
| CC(=O)Nc1cccc(Nc2ncc(C(N)=O)c(NCc3cccnc3)n2)c1 [Example 188, 2-(3-acetamidophenylamino)-4-(pyridin-3-ylmethylamino)pyrimidine-5-carboxamide] | 0.01 to 0.1 µM | 0.01 to 0.1 µM | 0.1 to 1 µM | 0.001 to 0.01 µM |  |  |
| NC(=O)c1cnc(Nc2cc(NC(=O)N3CCCC3)ccc2F)nc1NCc1ccccc1 [Example 204, 4-(benzylamino)-2-(2-fluoro-5-(pyrrolidine-1-carboxamido)phenylamino)pyrimidine-5-carboxamide] | 0.1 to 1 µM | 0.1 to 1 µM | 0.1 to 1 µM | 0.1 to 1 µM |  |  |
